Source: paper PMC8401933 (Molecules, 2021)

Experiments:
Assay in all cases: KINOMEscan binding
[1] = biological target: T1, NIM1 (Homo sapiens, UniProt Q8IY84); settings: read-out: Percent Control
T1 construct: purchased Eurofins DiscoverX KINOMEscan

[2] = biological target: T2, PLK1 (Homo sapiens, UniProt P53350); settings: read-out: Percent Control
T2 construct: purchased Eurofins DiscoverX KINOMEscan

[3] = biological target: T3, JAK2(JH1domain-catalytic) (Homo sapiens, UniProt O60674); settings: read-out: Percent Control
T3 construct: JAK2(JH1domain-catalytic); purchased Eurofins DiscoverX KINOMEscan
T3 sequence (O60674 840-1132 limits assumed): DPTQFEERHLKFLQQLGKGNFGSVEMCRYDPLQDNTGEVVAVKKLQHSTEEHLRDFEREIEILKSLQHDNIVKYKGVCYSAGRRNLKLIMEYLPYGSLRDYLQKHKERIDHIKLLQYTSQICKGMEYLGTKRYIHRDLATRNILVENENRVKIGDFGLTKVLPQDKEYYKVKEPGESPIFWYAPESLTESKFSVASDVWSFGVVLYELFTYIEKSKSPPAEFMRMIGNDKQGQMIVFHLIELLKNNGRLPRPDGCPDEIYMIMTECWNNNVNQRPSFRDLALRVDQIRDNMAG

[4] = biological target: T4, CDK4-cyclinD3 (Homo sapiens, UniProt P11802); settings: read-out: Percent Control
T4 construct: purchased Eurofins DiscoverX KINOMEscan

[5] = biological target: T5, FER (Homo sapiens, UniProt P16591); settings: read-out: Percent Control
T5 construct: purchased Eurofins DiscoverX KINOMEscan

[6] = biological target: T6, JAK3(JH1domain-catalytic) (Homo sapiens, UniProt P52333); settings: read-out: Percent Control
T6 construct: JAK3(JH1domain-catalytic); purchased Eurofins DiscoverX KINOMEscan

[7] = biological target: T7, FGFR4 (Homo sapiens, UniProt P22455); settings: read-out: Percent Control
T7 construct: purchased Eurofins DiscoverX KINOMEscan
T7 sequence (P22455 22-802): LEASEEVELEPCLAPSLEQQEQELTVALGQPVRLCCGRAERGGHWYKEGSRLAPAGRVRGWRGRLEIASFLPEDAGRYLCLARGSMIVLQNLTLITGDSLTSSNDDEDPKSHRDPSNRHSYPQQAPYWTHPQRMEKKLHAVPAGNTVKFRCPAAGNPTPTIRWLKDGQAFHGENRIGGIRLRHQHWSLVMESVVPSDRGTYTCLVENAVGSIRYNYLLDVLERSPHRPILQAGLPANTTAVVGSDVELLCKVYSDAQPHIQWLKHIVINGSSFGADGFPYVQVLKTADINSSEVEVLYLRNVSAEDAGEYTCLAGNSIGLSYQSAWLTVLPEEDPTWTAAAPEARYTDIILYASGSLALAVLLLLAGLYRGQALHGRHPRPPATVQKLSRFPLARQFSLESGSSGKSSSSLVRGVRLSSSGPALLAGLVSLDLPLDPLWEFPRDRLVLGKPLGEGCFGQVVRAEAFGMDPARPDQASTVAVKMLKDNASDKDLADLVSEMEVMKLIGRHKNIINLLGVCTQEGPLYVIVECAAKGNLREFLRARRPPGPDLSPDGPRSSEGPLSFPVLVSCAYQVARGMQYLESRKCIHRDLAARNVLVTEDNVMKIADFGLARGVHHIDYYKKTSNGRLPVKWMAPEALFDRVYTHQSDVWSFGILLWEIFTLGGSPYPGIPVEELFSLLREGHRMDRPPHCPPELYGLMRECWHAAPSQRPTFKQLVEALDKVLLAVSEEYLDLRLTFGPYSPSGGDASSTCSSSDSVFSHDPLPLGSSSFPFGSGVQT

[8] = biological target: T8, BUB1 (Homo sapiens, UniProt O43683); settings: read-out: Percent Control
T8 construct: purchased Eurofins DiscoverX KINOMEscan

[9] = biological target: T9, MEK3 (Homo sapiens, UniProt P46734); settings: read-out: Percent Control
T9 construct: purchased Eurofins DiscoverX KINOMEscan
T9 sequence (P46734 whole entry): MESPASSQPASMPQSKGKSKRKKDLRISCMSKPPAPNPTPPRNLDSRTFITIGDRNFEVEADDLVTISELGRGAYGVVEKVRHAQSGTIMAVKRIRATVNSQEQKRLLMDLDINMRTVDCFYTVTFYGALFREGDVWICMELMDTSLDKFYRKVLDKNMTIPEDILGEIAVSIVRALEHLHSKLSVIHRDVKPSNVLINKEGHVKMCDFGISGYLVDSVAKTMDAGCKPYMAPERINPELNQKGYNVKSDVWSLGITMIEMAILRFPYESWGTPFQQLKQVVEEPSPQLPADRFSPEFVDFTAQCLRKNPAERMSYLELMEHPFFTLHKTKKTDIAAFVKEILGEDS

[10] = biological target: T10, GRK4 (Homo sapiens, UniProt P32298); settings: read-out: Percent Control
T10 construct: purchased Eurofins DiscoverX KINOMEscan

[11] = biological target: T11, MAPKAPK5 (Homo sapiens, UniProt Q8IW41); settings: read-out: Percent Control
T11 construct: purchased Eurofins DiscoverX KINOMEscan

[12] = biological target: T12, ABL1(E255K)-phosphorylated (Homo sapiens, UniProt P00519, E255K); settings: read-out: Percent Control
T12 construct: purchased Eurofins DiscoverX KINOMEscan

[13] = biological target: T13, MINK (Homo sapiens, UniProt Q8N4C8); settings: read-out: Percent Control
T13 construct: purchased Eurofins DiscoverX KINOMEscan

[14] = biological target: T14, SRPK1 (Homo sapiens, UniProt Q96SB4); settings: read-out: Percent Control
T14 construct: purchased Eurofins DiscoverX KINOMEscan

[15] = biological target: T15, MEK1 (Homo sapiens, UniProt Q02750); settings: read-out: Percent Control
T15 construct: purchased Eurofins DiscoverX KINOMEscan

[16] = biological target: T16, CLK4 (Homo sapiens, UniProt Q9HAZ1); settings: read-out: Percent Control
T16 construct: purchased Eurofins DiscoverX KINOMEscan

[17] = biological target: T17, TNNI3K (Homo sapiens, UniProt Q59H18); settings: read-out: Percent Control
T17 construct: purchased Eurofins DiscoverX KINOMEscan
T17 sequence (Q59H18 whole entry): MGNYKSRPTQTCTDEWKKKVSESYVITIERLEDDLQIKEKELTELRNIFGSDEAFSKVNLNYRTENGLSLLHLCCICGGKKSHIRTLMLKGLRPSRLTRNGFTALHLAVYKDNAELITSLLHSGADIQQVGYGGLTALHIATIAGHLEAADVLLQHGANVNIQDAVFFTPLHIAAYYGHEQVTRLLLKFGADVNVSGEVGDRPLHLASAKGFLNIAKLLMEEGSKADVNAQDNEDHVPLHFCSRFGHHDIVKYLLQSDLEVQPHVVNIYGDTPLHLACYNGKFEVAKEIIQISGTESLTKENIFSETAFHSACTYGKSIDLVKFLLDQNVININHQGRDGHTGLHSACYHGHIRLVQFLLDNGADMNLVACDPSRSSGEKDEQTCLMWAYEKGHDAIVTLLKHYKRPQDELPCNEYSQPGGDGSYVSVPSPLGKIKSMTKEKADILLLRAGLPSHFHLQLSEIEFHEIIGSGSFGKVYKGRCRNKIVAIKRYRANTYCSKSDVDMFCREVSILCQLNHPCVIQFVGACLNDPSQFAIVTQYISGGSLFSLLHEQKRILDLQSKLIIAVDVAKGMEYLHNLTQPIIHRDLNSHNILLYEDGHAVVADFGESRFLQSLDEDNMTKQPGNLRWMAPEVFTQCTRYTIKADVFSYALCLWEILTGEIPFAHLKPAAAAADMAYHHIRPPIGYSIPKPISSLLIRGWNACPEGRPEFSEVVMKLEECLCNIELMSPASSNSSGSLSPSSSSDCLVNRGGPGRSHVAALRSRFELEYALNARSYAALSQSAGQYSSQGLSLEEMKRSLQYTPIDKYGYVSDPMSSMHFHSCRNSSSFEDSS

[18] = biological target: T18, BRK (Homo sapiens, UniProt Q13882); settings: read-out: Percent Control
T18 construct: purchased Eurofins DiscoverX KINOMEscan

[19] = biological target: T19, CSNK2A2 (Homo sapiens, UniProt P19784); settings: read-out: Percent Control
T19 construct: purchased Eurofins DiscoverX KINOMEscan
T19 sequence (P19784 whole entry): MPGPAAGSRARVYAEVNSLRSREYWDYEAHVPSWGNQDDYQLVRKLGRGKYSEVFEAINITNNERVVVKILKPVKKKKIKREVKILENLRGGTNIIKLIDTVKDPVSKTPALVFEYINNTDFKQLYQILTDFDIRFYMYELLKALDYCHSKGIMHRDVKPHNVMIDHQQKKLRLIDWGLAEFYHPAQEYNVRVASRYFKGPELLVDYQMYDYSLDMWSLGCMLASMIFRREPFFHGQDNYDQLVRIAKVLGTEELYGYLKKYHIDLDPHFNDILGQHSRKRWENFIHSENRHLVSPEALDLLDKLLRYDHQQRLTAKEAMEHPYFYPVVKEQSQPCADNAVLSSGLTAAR

[20] = biological target: T20, PKN1 (Homo sapiens, UniProt Q16512); settings: read-out: Percent Control
T20 construct: purchased Eurofins DiscoverX KINOMEscan

[21] = biological target: T21, GRK7 (Homo sapiens, UniProt Q8WTQ7); settings: read-out: Percent Control
T21 construct: purchased Eurofins DiscoverX KINOMEscan

[22] = biological target: T22, TSSK3 (Homo sapiens, UniProt Q96PN8); settings: read-out: Percent Control
T22 construct: purchased Eurofins DiscoverX KINOMEscan

[23] = biological target: T23, MAST1 (Homo sapiens, UniProt Q9Y2H9); settings: read-out: Percent Control
T23 construct: purchased Eurofins DiscoverX KINOMEscan

[24] = biological target: T24, EPHA4 (Homo sapiens, UniProt P54764); settings: read-out: Percent Control
T24 construct: purchased Eurofins DiscoverX KINOMEscan

[25] = biological target: T25, ACVR1B (Homo sapiens, UniProt P36896); settings: read-out: Percent Control
T25 construct: purchased Eurofins DiscoverX KINOMEscan
T25 sequence (P36896 24-505): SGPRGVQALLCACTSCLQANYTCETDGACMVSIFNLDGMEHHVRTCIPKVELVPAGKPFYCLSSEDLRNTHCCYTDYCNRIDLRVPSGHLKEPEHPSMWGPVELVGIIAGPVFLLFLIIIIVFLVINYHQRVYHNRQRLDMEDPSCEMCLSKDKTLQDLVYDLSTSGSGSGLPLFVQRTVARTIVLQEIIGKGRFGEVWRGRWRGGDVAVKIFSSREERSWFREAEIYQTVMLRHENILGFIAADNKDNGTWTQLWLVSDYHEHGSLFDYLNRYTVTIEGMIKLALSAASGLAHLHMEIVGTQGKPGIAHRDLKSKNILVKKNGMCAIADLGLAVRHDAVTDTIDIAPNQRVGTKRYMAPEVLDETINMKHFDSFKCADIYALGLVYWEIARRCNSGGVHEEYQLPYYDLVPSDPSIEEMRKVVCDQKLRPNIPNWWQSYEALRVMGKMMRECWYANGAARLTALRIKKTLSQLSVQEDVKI

[26] = biological target: T26, KIT (Homo sapiens, UniProt P10721); settings: read-out: Percent Control
T26 construct: purchased Eurofins DiscoverX KINOMEscan

[27] = biological target: T27, TESK1 (Homo sapiens, UniProt Q15569); settings: read-out: Percent Control
T27 construct: purchased Eurofins DiscoverX KINOMEscan

[28] = biological target: T28, CAMK2A (Homo sapiens, UniProt Q9UQM7); settings: read-out: Percent Control
T28 construct: purchased Eurofins DiscoverX KINOMEscan

[29] = biological target: T29, CAMK2G (Homo sapiens, UniProt Q13555); settings: read-out: Percent Control
T29 construct: purchased Eurofins DiscoverX KINOMEscan

[30] = biological target: T30, CSNK2A1 (Homo sapiens, UniProt P68400)
T30 construct: purchased Eurofins DiscoverX KINOMEscan
T30 sequence (P68400 whole entry): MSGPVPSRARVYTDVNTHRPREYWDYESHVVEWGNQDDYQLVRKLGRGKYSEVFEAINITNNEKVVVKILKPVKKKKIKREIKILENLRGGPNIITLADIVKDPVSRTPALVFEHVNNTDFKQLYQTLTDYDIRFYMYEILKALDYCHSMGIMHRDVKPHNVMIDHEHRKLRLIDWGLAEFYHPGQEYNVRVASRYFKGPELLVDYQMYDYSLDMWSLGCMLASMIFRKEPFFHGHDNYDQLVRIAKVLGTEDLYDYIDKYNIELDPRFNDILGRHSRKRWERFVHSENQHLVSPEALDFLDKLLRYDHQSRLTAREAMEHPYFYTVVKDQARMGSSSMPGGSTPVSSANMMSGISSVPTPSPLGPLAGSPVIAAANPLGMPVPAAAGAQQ

[31] = biological target: T31, MRCKA (Homo sapiens, UniProt Q5VT25); settings: read-out: Percent Control
T31 construct: purchased Eurofins DiscoverX KINOMEscan

[32] = biological target: T32, BRAF(V600E) (Homo sapiens, UniProt P15056, V600E); settings: read-out: Percent Control
T32 construct: purchased Eurofins DiscoverX KINOMEscan
T32 sequence (P15056 whole entry V600E): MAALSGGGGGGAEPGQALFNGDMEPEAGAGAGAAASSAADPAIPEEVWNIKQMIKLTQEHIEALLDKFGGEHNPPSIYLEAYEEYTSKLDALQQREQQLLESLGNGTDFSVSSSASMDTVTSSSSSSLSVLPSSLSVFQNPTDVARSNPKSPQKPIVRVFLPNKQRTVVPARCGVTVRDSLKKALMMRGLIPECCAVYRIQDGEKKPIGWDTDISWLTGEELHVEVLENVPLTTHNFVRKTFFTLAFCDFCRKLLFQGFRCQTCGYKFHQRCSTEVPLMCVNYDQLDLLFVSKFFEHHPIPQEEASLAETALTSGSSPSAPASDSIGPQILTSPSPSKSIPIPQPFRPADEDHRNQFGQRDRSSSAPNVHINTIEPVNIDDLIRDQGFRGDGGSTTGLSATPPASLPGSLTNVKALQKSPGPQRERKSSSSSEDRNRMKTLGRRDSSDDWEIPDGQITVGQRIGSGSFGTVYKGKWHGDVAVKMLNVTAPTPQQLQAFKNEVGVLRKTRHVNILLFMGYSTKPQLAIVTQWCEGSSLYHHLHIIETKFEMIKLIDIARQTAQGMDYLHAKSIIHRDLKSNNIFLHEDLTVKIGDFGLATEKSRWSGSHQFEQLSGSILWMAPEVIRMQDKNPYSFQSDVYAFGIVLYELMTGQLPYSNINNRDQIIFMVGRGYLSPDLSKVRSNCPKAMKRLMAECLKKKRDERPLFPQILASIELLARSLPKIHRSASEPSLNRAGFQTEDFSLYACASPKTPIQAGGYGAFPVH

[33] = biological target: T33, RPS6KA4(Kin.Dom.2-C-terminal) (Homo sapiens, UniProt O75676); settings: read-out: Percent Control
T33 construct: RPS6KA4(Kin.Dom.2-C-terminal); purchased Eurofins DiscoverX KINOMEscan

[34] = biological target: T34, RET(V804M) (Homo sapiens, UniProt P07949, V804M); settings: read-out: Percent Control
T34 construct: purchased Eurofins DiscoverX KINOMEscan

[35] = biological target: T35, CAMK1B (Homo sapiens, UniProt Q6P2M8); settings: read-out: Percent Control
T35 construct: purchased Eurofins DiscoverX KINOMEscan

[36] = biological target: T36, TEC (Homo sapiens, UniProt P42680); settings: read-out: Percent Control
T36 construct: purchased Eurofins DiscoverX KINOMEscan

[37] = biological target: T37, ABL1(F317I)-nonphosphorylated (Homo sapiens, UniProt P00519, F317I); settings: read-out: Percent Control
T37 construct: purchased Eurofins DiscoverX KINOMEscan

[38] = biological target: T38, ZAP70 (Homo sapiens, UniProt P43403); settings: read-out: Percent Control
T38 construct: purchased Eurofins DiscoverX KINOMEscan

[39] = biological target: T39, PIK3C2B (Homo sapiens, UniProt O00750); settings: read-out: Percent Control
T39 construct: purchased Eurofins DiscoverX KINOMEscan

[40] = biological target: T40, TNK1 (Homo sapiens, UniProt Q13470); settings: read-out: Percent Control
T40 construct: purchased Eurofins DiscoverX KINOMEscan
T40 sequence (Q13470 whole entry): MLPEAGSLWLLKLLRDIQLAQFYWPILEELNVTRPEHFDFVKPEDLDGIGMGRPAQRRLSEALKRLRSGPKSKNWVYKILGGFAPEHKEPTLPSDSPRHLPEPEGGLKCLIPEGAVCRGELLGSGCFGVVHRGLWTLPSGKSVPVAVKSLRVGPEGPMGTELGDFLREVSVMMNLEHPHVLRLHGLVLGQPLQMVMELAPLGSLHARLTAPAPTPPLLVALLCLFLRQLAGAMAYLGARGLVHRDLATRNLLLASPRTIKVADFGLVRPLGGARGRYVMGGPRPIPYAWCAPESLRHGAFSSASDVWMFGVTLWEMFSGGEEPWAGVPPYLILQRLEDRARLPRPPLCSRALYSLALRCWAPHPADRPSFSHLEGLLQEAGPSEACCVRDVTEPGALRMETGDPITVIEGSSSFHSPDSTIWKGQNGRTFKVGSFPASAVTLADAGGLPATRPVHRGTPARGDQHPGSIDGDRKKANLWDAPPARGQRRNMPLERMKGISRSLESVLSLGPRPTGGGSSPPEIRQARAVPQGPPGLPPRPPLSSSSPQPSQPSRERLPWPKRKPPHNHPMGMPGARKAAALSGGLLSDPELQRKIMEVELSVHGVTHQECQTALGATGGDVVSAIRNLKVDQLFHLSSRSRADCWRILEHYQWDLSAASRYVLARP

[41] = biological target: T41, PCTK3 (Homo sapiens, UniProt Q07002); settings: read-out: Percent Control
T41 construct: purchased Eurofins DiscoverX KINOMEscan

[42] = biological target: T42, TTK (Homo sapiens, UniProt P33981); settings: read-out: Percent Control
T42 construct: purchased Eurofins DiscoverX KINOMEscan

[43] = biological target: T43, TRKB (Homo sapiens, UniProt Q16620); settings: read-out: Percent Control
T43 construct: purchased Eurofins DiscoverX KINOMEscan

Compound: CC(C)NC(=O)COc1cccc(-c2nc(Nc3ccc4[nH]ncc4c3)c3ccccc3n2)c1 [KD025, 2-(3-(4-((1H-indazol-5-yl)amino)quinazolin-2-yl)phenoxy)-N-isopropylacetamide]
- remaining binding at 10 µM [1]: 100%
- remaining binding at 10 µM [2]: 100%
- remaining binding at 10 µM [3]: 51%
- remaining binding at 10 µM [4]: 53%
- remaining binding at 10 µM [5]: 75%
- remaining binding at 10 µM [6]: 94%
- remaining binding at 10 µM [7]: 91%
- remaining binding at 10 µM [8]: 69%
- remaining binding at 10 µM [9]: 77%
- remaining binding at 10 µM [10]: 16%
- remaining binding at 10 µM [11]: 89%
- remaining binding at 10 µM [12]: 67%
- remaining binding at 10 µM [13]: 71%
- remaining binding at 10 µM [14]: 7%
- remaining binding at 10 µM [15]: 72%
- remaining binding at 10 µM [16]: 77%
- remaining binding at 10 µM [17]: 92%
- remaining binding at 10 µM [18]: 86%
- remaining binding at 10 µM [19]: 0.5%
- remaining binding at 10 µM [20]: 97%
- remaining binding at 10 µM [21]: 80%
- remaining binding at 10 µM [22]: 77%
- remaining binding at 10 µM [23]: 100%
- remaining binding at 10 µM [24]: 93%
- remaining binding at 10 µM [25]: 91%
- remaining binding at 10 µM [26]: 79%
- remaining binding at 10 µM [27]: 73%
- remaining binding at 10 µM [28]: 87%
- remaining binding at 10 µM [29]: 99%
- CK2α and CK2α’ inhibited less than ROCK2 (POC) ([30]; 10 μM): 10 fold
- remaining binding at 10 µM ([30]; CSNK2A1, read-out: Percent Control): 0.5%
- remaining binding at 10 µM [31]: 57%
- remaining binding at 10 µM [32]: 91%
- remaining binding at 10 µM [33]: 91%
- remaining binding at 10 µM [34]: 59%
- remaining binding at 10 µM [35]: 97%
- remaining binding at 10 µM [36]: 95%
- remaining binding at 10 µM [37]: 98%
- remaining binding at 10 µM [38]: 63%
- remaining binding at 10 µM [39]: 67%
- remaining binding at 10 µM [40]: 88%
- remaining binding at 10 µM [41]: 81%
- remaining binding at 10 µM [42]: 28%
- remaining binding at 10 µM [43]: 98%
